Results reported in US20060014940A1, “Cloning and characterization of slc26a6, slc26a1, and slc26a2 anion exchangers” (priority 2002, published 2006).

How the values were obtained:
rat SLC26A1 = rat SLC26A1 (Rattus norvegicus, UniProt P45380); conditions: Satoh et al., 1998; cited from earlier work
mouse SLC26A1 = target: T1, mouse SLC26A1 (Mus musculus, UniProt P58735, C691Y); experiment: Radiolabelled anion uptake in Xenopus oocytes expressing mouse SLC26A1; type: cell-based; conditions: for effect of extracellular anion on SO4 2− transport via SLC26A1: 25 mM of the anion (FIG. 9A, 6C); for transport via SLC26A1: FIG. 6B, FIG. 8B
T1 construct: Full-length mouse SLC26A6b and SLC26A 1 cDNAs were cloned into the Xenopus expression vector pGEMHE; expressed in transfected cells; host or cells: Xenopus laevis oocytes injected with in vitro transcribed cRNA (pGEMHE)
T1 sequence (P58735 1-704 C691Y): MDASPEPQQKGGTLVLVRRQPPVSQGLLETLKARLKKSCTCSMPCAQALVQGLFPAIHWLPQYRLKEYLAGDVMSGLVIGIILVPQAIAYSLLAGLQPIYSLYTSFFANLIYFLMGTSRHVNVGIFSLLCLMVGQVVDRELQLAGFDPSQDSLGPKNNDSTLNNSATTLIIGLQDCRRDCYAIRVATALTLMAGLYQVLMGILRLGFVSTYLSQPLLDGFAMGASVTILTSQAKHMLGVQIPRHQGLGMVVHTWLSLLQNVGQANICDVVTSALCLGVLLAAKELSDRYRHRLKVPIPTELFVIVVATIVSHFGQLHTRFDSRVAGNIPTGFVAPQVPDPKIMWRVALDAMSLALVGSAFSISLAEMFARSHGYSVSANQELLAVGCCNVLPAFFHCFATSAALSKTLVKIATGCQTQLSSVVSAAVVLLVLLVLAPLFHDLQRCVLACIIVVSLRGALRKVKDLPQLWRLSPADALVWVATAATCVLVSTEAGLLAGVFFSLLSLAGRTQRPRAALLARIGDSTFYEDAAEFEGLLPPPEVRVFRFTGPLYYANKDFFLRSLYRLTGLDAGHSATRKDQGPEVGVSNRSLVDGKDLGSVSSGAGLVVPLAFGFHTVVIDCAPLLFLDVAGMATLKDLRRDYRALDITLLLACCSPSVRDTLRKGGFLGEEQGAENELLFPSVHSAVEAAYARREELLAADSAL
Procedure: (§1) Full-length mouse SLC26A6b and SLC26A 1 cDNAs were cloned into the Xenopus expression vector pGEMHE (Liman et al., 1992). The SLC26A6 and SLC26A1 expression constructs were linearized, and cRNA was transcribed in vitro using T7 RNA polymerase and a […] MMACHINE® transcription kit (Ambion, Inc. of Austin, Tex., United States of America). Defolliculated oocytes were injected with 25 nl to 50 nl of water or with a solution containing cRNA at a concentration of 0.5 μg/μl (12.5 ng to 25 ng per oocyte) using a Nanoliter-2000 injector (WPI Instruments of Sarasota, Fla., United States of America). Oocytes were incubated at 17° C. in 50% Leibovitz's L-15 media supplemented with penicillin/streptomycin (1000 units/ml) and glutamine for 2-3 days for uptake assays.
(§2) For sulphate uptake assays, oocytes were pre-incubated for 20 minutes in chloride-free uptake medium (100 mM NMDG gluconate, 2 mM potassium gluconate, 1 mM calcium gluconate, 1 mM magnesium gluconate, 10 mM HEPES-Tris, pH 6.0 or pH 7.5 as indicated), followed by a 60-minute period for uptake in the same medium supplemented with 1 mM K2^35SO4 (40 μCi/ml). The cells were then washed three times in uptake buffer with 5 mM cold K2SO4 to remove tracer activity in the extracellular fluid. The oocytes were dissolved individually in 10% SDS, and tracer activity was determined by scintillation counting. Uptake of chloride, formate, and oxalate was assayed using the same chloride-free uptake solutions, substituting 8.3 mM ^36Cl, 500 μM [^14C]oxalate, or 50 μM [^14C]formate for labeled sulphate.
(§3) For sulphate exchange and cis-inhibition experiments, the concentration of NMDG-gluconate in the uptake solution was adjusted to maintain isotonic osmolality, which was confirmed experimentally using a FISKE® osmometer (Fiske Associates, Inc. of Bethel, Conn., United States of America).

mouse SLC26A6b [1] = target: T2, mouse SLC26A6b (Mus musculus, UniProt Q8CIW6, R572P); experiment: Radiolabelled anion uptake/exchange in Xenopus oocytes expressing mouse SLC26A6b; type: cell-based; conditions: for cis-inhibition of Cl−—Cl− exchange / cis-inhibition of SO4 2− transport: 25 mM of the anion; for cis-inhibition of Cl−—Cl− exchange: 36Cl− uptake one hour (FIG. 7A); for exchange of SO4 2− with extracellular anion (trans-stimulation of 35SO4 efflux): 10 mM of the anion, 30 minutes (FIG. 7C); for 36Cl− uptake: 8.3 mM 36Cl; for cis-inhibition of SO4 2− transport: 35SO4 uptake one hour (FIG. 7B)
T2 construct: Full-length mouse SLC26A6b and SLC26A 1 cDNAs were cloned into the Xenopus expression vector pGEMHE; expressed in transfected cells; host or cells: Xenopus laevis oocytes injected with in vitro transcribed cRNA (pGEMHE)
T2 sequence (Q8CIW6 24-758 R572P limits assumed): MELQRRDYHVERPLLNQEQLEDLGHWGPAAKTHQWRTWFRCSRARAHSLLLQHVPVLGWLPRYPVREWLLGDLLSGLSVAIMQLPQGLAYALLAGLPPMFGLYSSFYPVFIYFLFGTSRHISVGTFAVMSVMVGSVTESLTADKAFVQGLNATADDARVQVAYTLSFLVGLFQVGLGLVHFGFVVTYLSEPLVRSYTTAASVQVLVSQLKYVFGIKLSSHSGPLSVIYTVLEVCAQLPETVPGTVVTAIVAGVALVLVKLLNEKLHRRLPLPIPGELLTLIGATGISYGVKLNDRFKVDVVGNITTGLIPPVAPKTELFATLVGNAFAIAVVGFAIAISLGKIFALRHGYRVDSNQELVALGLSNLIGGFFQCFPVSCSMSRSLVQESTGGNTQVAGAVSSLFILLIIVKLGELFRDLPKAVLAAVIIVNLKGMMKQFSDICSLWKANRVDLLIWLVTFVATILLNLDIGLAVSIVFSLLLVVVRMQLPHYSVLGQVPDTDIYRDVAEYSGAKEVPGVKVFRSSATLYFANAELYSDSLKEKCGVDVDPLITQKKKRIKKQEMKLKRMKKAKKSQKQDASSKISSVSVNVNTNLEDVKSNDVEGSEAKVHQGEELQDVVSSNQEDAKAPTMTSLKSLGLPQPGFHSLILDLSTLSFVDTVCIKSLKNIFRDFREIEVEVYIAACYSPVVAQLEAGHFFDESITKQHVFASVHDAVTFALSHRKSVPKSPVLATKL
Procedure: as §1, §2, §3

xPDS3 = experiment: Anion transport in Xenopus oocytes expressing xPDS3; type: cell-based, Xenopus laevis
Description: (§4) One or more of these xPDS genes likely corresponds to the Xenopus descendant of mammalian SLC26A3.

human SLC26A6 = system: human SLC26A6
Description: FIG. 13 depicts chloride uptake in Xenopus oocytes expressing Xenopus xPDS2, human SLC26A3 (DRA), mouse Slc26a6, and human SLC26A6, with extracellular pH of 7.5 (open bars) or 6.0 (dark fill).
FIG. 15 depicts sulphate transport mediated by Xenopus oocytes expressing human SLC26A6, at varying concentrations of extracellular SO4^2− and constant amounts of tracer ^35SO4^2−.
A feature of the mammalian SLC26 gene family is relatively low conservation between orthologs in mouse and man; the percent amino acid identity ranges from a low of 76% (SLC26A8) to a high of 90% (SLC26A9), versus the reported median of 86% for mouse and human orthologous genes. Makalowski, W. & Boguski, 1998. This sequence divergence is reflected in functional variation, which can be exploited for structure-function analysis.

xPDS1 = experiment: Anion transport in Xenopus oocytes expressing xPDS1; type: cell-based, Xenopus laevis
Description: as §4

xSLC26A6 = conditions: FIG. 17
Description: as §4

mouse SLC26A2 = mouse SLC26A2 (Mus musculus, UniProt Q62273)
mouse SLC26A2, sequence (Q62273 whole entry): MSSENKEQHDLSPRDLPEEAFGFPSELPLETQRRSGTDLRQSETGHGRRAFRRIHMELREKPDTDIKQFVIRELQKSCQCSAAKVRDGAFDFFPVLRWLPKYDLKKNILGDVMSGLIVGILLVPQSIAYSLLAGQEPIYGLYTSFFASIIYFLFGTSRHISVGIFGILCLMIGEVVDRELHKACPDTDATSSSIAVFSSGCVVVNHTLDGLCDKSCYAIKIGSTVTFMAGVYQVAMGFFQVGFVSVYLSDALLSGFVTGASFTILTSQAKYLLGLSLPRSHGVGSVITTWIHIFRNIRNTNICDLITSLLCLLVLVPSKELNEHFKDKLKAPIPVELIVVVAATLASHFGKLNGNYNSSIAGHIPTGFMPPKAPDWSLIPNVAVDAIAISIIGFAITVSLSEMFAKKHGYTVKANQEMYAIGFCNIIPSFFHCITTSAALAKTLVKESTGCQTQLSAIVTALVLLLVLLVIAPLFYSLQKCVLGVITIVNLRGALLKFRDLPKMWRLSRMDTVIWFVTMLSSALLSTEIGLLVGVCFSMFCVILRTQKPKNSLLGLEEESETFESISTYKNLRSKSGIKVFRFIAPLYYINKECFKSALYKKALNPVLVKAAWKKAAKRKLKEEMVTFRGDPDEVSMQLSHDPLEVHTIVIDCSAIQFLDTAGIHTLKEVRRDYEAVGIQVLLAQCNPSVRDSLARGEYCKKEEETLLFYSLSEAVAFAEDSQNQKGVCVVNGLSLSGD
Procedure: as §2

xPDS2 = experiment: Anion transport in Xenopus oocytes expressing xPDS2; type: cell-based, Xenopus laevis
Description: as §4

mouse SLC26A6b [2] = target: T2, mouse SLC26A6b; experiment: Radiolabelled anion uptake/exchange in Xenopus oocytes expressing mouse SLC26A6b; type: cell-based; conditions: pH 7.4; DIDS 1 mM (FIG. 6A)
SLC26A1 = SLC26A1 (Rattus norvegicus, UniProt P45380); conditions: Markovich & James, 1999; cited from earlier work
SLC26A1, sequence (P45380 whole entry): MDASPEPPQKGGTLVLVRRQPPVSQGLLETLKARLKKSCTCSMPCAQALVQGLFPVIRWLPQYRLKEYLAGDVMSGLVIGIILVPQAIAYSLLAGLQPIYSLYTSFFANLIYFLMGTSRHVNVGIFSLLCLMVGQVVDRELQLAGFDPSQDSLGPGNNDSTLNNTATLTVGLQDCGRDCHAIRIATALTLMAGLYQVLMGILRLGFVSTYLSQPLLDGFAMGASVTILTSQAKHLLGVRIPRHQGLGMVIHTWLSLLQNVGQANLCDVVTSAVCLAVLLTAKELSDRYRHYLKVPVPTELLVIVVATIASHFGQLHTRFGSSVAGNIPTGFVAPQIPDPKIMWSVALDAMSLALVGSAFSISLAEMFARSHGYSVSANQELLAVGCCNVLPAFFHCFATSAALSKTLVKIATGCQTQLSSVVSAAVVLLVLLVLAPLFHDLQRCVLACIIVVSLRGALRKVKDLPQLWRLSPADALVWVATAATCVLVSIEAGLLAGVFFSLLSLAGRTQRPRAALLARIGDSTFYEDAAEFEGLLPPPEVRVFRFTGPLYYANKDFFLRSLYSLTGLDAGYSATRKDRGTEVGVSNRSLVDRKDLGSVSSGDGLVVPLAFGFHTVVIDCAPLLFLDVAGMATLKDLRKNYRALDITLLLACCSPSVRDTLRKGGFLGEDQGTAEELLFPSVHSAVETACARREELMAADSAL

rat SLC26A1, sequence (P45380 whole entry): as above

In the case of `O=C(O)O` [HCO3^−, bicarbonate], the “activation of SO4 2− uptake” value (rat SLC26A1) is listed as “does not activate”.

With `CC(O)C(=O)O` (stereo not drawn) [lactate] the “effect of extracellular anion on SO4 2− transport via SLC26A1” value (shortened to “effect of extracellular anion”) (mouse SLC26A1) was “activate” and the “cis-inhibition of Cl−—Cl− exchange” value (mouse SLC26A6b [1]) was “not lactate significantly inhibited”.

In the case of `Cl` [Cl^−, chloride], the “Cl− transport” value (xPDS3; FIG. 17) is reported as “robust”, the “Cl− transport” value (human SLC26A6; FIG. 13) is reported as “clearly transports” and the “Cl− transport” value (xPDS1; FIG. 17) is reported as “robust”. For the same molecule, the “effect of extracellular anion” value (mouse SLC26A1) was “much higher”, the “transport via SLC26A1” value (mouse SLC26A1) was “not transported” and the “Cl−—Cl− exchange” value (mouse SLC26A1; presence or absence of 25 mM SO4 2−) was “minimal”. The “Cl− transport” value (xSLC26A6) was “robust”, the “effect of extracellular Cl− on 35SO4 2− uptake” value (mouse SLC26A2; 25 mM Cl− (FIG. 10B)) was “significantly inhibited” and the “exchange of SO4 2− with extracellular anion (trans-stimulation of 35SO4 efflux)” value (from here on “exchange … (trans-stimulation of 35SO4 efflux)”) (mouse SLC26A6b [1]) was “clearly mediated exchange”. The “36Cl− uptake” value (mouse SLC26A6b [1]; pH 6.0) was 4193±109 pmol/oocyte/hour, the “36Cl− uptake” value (mouse SLC26A6b [1]; pH 7.4) was 4345±243 pmol/oocyte/hour and the “Cl− transport” value (xPDS2; FIG. 17) was “robust”.

For `O=S(=O)(O)O` [sulphate], the “SO4 2− transport” value (xPDS3) was “none of the xPDS clones transport”, the “absolute rate of SO4 2− transport” value (human SLC26A6; human SLC26A6, increasing extracellular SO4 2− (FIG. 15)) was roughly 200 pmol/oocyte/hr and the “SO4 2− transport” value (xPDS1) was “none of the xPDS clones transport”. The “effect of extracellular anion” value (mouse SLC26A1) was “strongly cis-inhibitory”, the “SO4 2− uptake” value (mouse SLC26A1; SLC26A1-injected oocytes (FIG. 6A)) was 72±2 pmol/oocyte/h and the “35SO4 2− uptake” value (mouse SLC26A2; absence of extracellular Cl− (FIG. 10A)) was “robust”. For the same molecule, the “35SO4 2− uptake at pH 6.0” value (mouse SLC26A2; pH 6.0 versus pH 7.4 (FIG. 10A)) was “increased significantly”, the “exchange … (trans-stimulation of 35SO4 efflux)” value (mouse SLC26A6b [1]) was “clearly mediated exchange” and the “cis-inhibition of Cl−—Cl− exchange” value (mouse SLC26A6b [1]) was “significantly inhibited”. For the same molecule, the “sulphate uptake at pH 7.4 versus pH 6.0” value (mouse SLC26A6b [1]; SLC26A6b-injected oocytes) was “not significantly altered”, the “sulphate uptake independent of Na+” value (mouse SLC26A6b [1]; SLC26A6b-injected oocytes, Na+-free) was 652±57 pmol/oocyte/hour and the “sulphate uptake independent of Cl−” value (mouse SLC26A6b [1]; SLC26A6b-injected oocytes, pH 7.4, Cl−-free medium, 1 mM 35SO4) was 602±0 pmol/oocyte/hour. For the same molecule, the “absolute rate of SO4 2− transport” value (mouse SLC26A6b [1]; mouse Slc26a6, increasing extracellular SO4 2− (FIG. 14)) was ~4,000 pmol/oocyte/hr and the “SO4 2− transport” value (xPDS2) was “none of the xPDS clones transport”.

With `I` [I^−, iodide] the “cis-inhibition of SO4 2− transport” value (mouse SLC26A6b [1]) was “cis-inhibitory” and the “cis-inhibition of Cl−—Cl− exchange” value (mouse SLC26A6b [1]) was “cis-inhibitory”.

For `O=S(=O)(O)c1cc(N=C=S)ccc1C=Cc1ccc(N=C=S)cc1S(=O)(=O)O` [DIDS, 4,4′-diisothiocyanatostilbene-2,2′-disulfonic acid], the “sulphate uptake, sensitivity to DIDS” value (mouse SLC26A6b [2]) was 301±24 pmol/oocyte/hour and the “sulphate uptake, sensitivity to DIDS” value (mouse SLC26A6b [1]; pH 6.0, DIDS 1 mM (FIG. 6A)) was 101±10 pmol/oocyte/hour.

In the case of `Br` [Br^−], the “cis-inhibition of SO4 2− transport” value (mouse SLC26A6b [1]) is reported as “cis-inhibitory” and the “cis-inhibition of Cl−—Cl− exchange” value (mouse SLC26A6b [1]) is reported as “cis-inhibitory”.

For `O=CO` [formate], the “effect of extracellular anion” value (mouse SLC26A1) was “activate”, the “transport via SLC26A1” value (mouse SLC26A1) was “not transported” and the formate uptake (mouse SLC26A1; SLC26A1-injected oocytes) was 7 pmol/oocyte/h. For the same molecule, the formate uptake (mouse SLC26A6b [1]; 50 μM [14C]formate (FIG. 8B)) was 45±5 pmol/oocyte/hour, the “exchange … (trans-stimulation of 35SO4 efflux)” value (mouse SLC26A6b [1]) was “clearly mediated exchange” and the “cis-inhibition of Cl−—Cl− exchange” value (mouse SLC26A6b [1]) was “significantly inhibited”.

In the case of mercury, the “effect on maximal sulphate transport via SLC26A1” value (SLC26A1) is listed as “strongly inhibited”.
